From patent US20250059474A1, “Liquid formulation comprising an alcohol and highly water soluble manganese complex salt catalyst, bleaching formulation and cleaning agent comprising the same” (Catexel GmbH, priority 2023, published 2025)
Like-named read-outs stand apart in the source and are kept apart here.

Key:
[1] = Stability of PVOH pouches containing solvents; settings: 26 weeks at 40° C. then 26 weeks at room temperature
Protocol: In small pouches made from a standard PVOH film, different solvents were added (1 mL), the pouch was sealed using a hot plate (150° C.). The pouches containing the solvent were stored for 26 weeks at 40° C. and then for 26 weeks at room temperature.

[2] = Dissolution and storage stability of MnTACN salts in various solvents; type: physicochemical
Protocol: Dissolution of MnTACN-PF6 catalyst in various solvents was performed. First a screening was done in which solvents the PF6 salt of the MnTACN catalyst could be dissolved.

[3] = Solubility in water at 20° C.; type: physicochemical
[4] = Dishwash machine tea-stain cleaning experiments; settings: 0 = no cleaning, 100 = complete removal
Protocol: A standard dishwash machine tablet was prepared using the same ingredients as disclosed in WO2022/058039 (Weylchem Performance Products GmbH). Together with each tablet (14 g) on top, either no catalyst was added (blank), 100 mg of Weylclean® FDO X (uncoated granules containing 2 wt-% of MnTACN-PF6 (comparative)) was added, or 82 mg of dipropylene glycol containing 1.64 mg of dissolved MnTACN-SO4 (Exp low MnTACN-SO4) or 100 mg of dipropylene glycol containing 2 mg of dissolved MnTACN-SO4 (Exp high MnTACN-SO4).

[5] = Dowanol PM with 3 wt % citric acid
[6] = dipropylene glycol with 3 wt % of nitric acid
[7] = dipropylene glycol with 3 wt % sulfuric acid
[8] = propylene glycol, no acids added

COC(C)COC(C)CO (stereo not drawn) [Dowanol DPM, dipropylene glycol methyl ether]
stability of PVOH pouches containing the solvent ([1]; solvent without acid, 1 mL): good stability

COCC(C)O (stereo not drawn) [Dowanol PM, propylene glycol methyl ether]
stability of PVOH pouches containing the solvent ([1]; solvent with 3 wt % H2SO4): not stable | stability of PVOH pouches containing the solvent ([1]; solvent with 3 wt % HNO3): good stability | stability of PVOH pouches containing the solvent ([1]; solvent with 3 wt % citric acid): not stable | stability of PVOH pouches containing the solvent ([1]; solvent without acid, 1 mL): not stable

CN1CCN(C)CCN(C)CC1.CN1CCN(C)CCN(C)CC1.O.O.O.[Cl-].[Cl-].[Mn+4].[Mn+4].[O-2].[O-2].[O-2] [MnTACN-Cl2, [Mn^IV2(μ-O)3(Me3-TACN)2]Cl2*3H2O]
solubility in solvent ([2]; dipropylene glycol, had to be heated): dissolved | solubility in water [3]: greater than 182 g/L | solubility in water ([3]; equated from g/L): > 18.2 wt %

CN1CCN(C)CCN(C)CC1.CN1CCN(C)CCN(C)CC1.O=[N+]([O-])[O-].O=[N+]([O-])[O-].[Mn+4].[Mn+4].[O-2].[O-2].[O-2] [MnTACN-NO3, [Mn^IV2(μ-O)3(Me3-TACN)2](NO3)2]
solubility and stability in solvent [2, 5]: good solubility and stability | solubility and stability in solvent ([2]; Dowanol PM with sulfuric acid): good solubility and stability | solubility and stability in solvent ([2]; Dowanol PM without acid): good solubility and stability | solubility and stability in solvent ([2]; dipropylene glycol): good solubility and stability | solubility and stability in solvent [2, 6]: good solubility and stability | solubility and stability in solvent [2, 7]: good solubility and stability | solubility and stability in solvent [2, 8]: good solubility and stability | solubility in water [3]: greater than 283 g/L | solubility in water ([3]; equated from g/L): > 28.3 wt %

CN1CCN(C)CCN(C)CC1.CN1CCN(C)CCN(C)CC1.F[P-](F)(F)(F)(F)F.F[P-](F)(F)(F)(F)F.O.[Mn+4].[Mn+4].[O-2].[O-2].[O-2] [MnTACN-PF6, [Mn^IV2(μ-O)3(Me3-TACN)2](PF6)2*H2O, reference compound]
solubility in solvent ([2]; 1,3-propanol-diol): Poor solubility | solubility in solvent ([2]; 1-hexanol): Poor solubility | solubility in solvent ([2]; 1-propanol): Poor solubility | solubility in solvent ([2]; 2-ethyl-1-hexanol): Poor solubility | solubility in solvent ([2]; 2-propanol): Poor solubility | solubility in solvent ([2]; Dowanol DPM): Poor solubility | solubility and stability in solvent ([2]; Dowanol PM without acid): Poor solubility | solubility in solvent ([2]; acetonitrile): dissolved very well | solubility and stability in solvent ([2]; dipropylene glycol): Poor solubility | solubility in solvent ([2]; ethanol (abs)): Poor solubility | solubility in solvent ([2]; ethyl acetate): Poor solubility | solubility in solvent ([2]; ethylene glycol, after heating): dissolved | solubility in solvent ([2]; formic acid): well soluble | stability (appearance) in solution ([2]; formic acid): turned brown | solubility in water [3]: 10.8 g/L

CN1CCN(C)CCN(C)CC1.CN1CCN(C)CCN(C)CC1.O.O.O.O.O=S(=O)([O-])[O-].[Mn+4].[Mn+4].[O-2].[O-2].[O-2] [MnTACN-SO4, [Mn^IV2(μ-O)3(Me3-TACN)2]SO4*4H2O]
solubility and stability in solvent [2, 5]: good solubility and stability | solubility and stability in solvent ([2]; Dowanol PM with nitric acid): poor solubility | solubility and stability in solvent ([2]; Dowanol PM with sulfuric acid): poor solubility | solubility and stability in solvent ([2]; Dowanol PM without acid): good solubility and stability | solubility and stability in solvent ([2]; dipropylene glycol): good solubility and stability | solubility and stability in solvent ([2]; dipropylene glycol with 3 wt % citric acid): good solubility and stability | solubility and stability in solvent [2, 6]: precipitation | solubility and stability in solvent [2, 7]: precipitation | solubility and stability in solvent [2, 8]: good solubility and stability | solubility in water [3]: greater than 735 g/L | solubility in water ([3]; equated from g/L): > 73.5 wt % | tea-stain cleaning on tea cups ([4]; 14 g tablet + 82 mg dipropylene glycol containing 1.64 mg dissolved catalyst (Exp low)): 80 points | tea-stain cleaning on tea cups ([4]; 14 g tablet + 100 mg dipropylene glycol containing 2 mg dissolved catalyst (Exp high)): 85 points

CN1CCN(C)CCN(C)CC1.CN1CCN(C)CCN(C)CC1.Cc1ccc(S(=O)(=O)[O-])cc1.Cc1ccc(S(=O)(=O)[O-])cc1.[Mn+4].[Mn+4].[O-2].[O-2].[O-2] [MnTACN-Ts2, [Mn^IV2(μ-O)3(Me3-TACN)2](tosylate)2]
solubility and stability in solvent ([2]; dipropylene glycol): dissolved | solubility in water [3]: greater than 100 g/L | solubility in water ([3]; equated from g/L): > 10 wt %

CN1CCN(C)CCN(C)CC1.CN1CCN(C)CCN(C)CC1.O.O.O.O.O=C([O-])c1ccccc1.O=C([O-])c1ccccc1.[Mn+4].[Mn+4].[O-2].[O-2].[O-2] [MnTACN-benzoate, [Mn^IV2(μ-O)3(Me3-TACN)2](benzoate)2*4H2O]
solubility and stability in solvent ([2]; dipropylene glycol): dissolved well | stability upon storage in solution ([2]; dipropylene glycol, room temperature for at least 7 months): very high stability | solubility in water [3]: greater than 1000 g/L
